The values below come from paper PMC8461356 (Heliyon, 2021).

Structures are written as SMILES. Read-outs that look alike come from different tables or passages of the source.

The term viability denotes a read-out of living cells in per cent, often relative to untreated cells. Usually half-life stands for how long it takes for the measured level to halve.

Data set [1] is classed as cell-based, Human. The settings on record: human, HEK-293 cells, relative cell viability, 4 °C/No UV = 100 %.
The test system of the next data set is HEK-293 cells. Type of data set: cell-based, Human. To be noted: for toxicity enhanced: co-treatment with UV 365 nm and 40 °C; for more cell death after exposing herbicide to 40 °C for 2 h: herbicide at LD50, no UV, compared with 4 °C and RT groups, 24-h cell exposure; for change in cell viability: 2 h of 40 °C/UV 254 nm; for increased toxicity: vs no UV.
The conditions of data set [2]: outdoor aquatic mesocosms, at 25 ng mL^−1; cited from earlier work.
For data set [3] the following is noted: cited from earlier work.
Another data set relates to isolated rat hepatocytes. The settings on record: rats and dogs, 100–200 μmole L-1 for 2–4 h; cited from earlier work.
The conditions of data set [4]: in vivo studies; cited from earlier work.

Take `CCOCN(C(=O)CCl)c1c(C)cccc1CC` [Acetochlor, acetochlor]: the results for the viability at 24 h in data set [1] (40 °C/No UV 2 h), in data set [1] (40 °C/UV 254 nm 2 h) and in data set [1] (40 °C/UV 365 nm 2 h) were 56.6%, 163% and 45.1%, respectively. The toxicity enhanced in the data set with HEK-293 cells is listed as 55%. Also, in the data set with HEK-293 cells, the “more cell death after exposing herbicide to 40 °C for 2 h” value is listed as “about 45%”.

In the case of `CCc1cccc(CC)c1N(COC)C(=O)CCl` [Alachlor, alachlor], the viability at 24 h was 54.1% in data set [1] (40 °C/No UV 2 h), 87.9% in data set [1] (40 °C/UV 254 nm 2 h) and 19.2% in data set [1] (40 °C/UV 365 nm 2 h). For the same compound, in the data set on HEK-293 cells, the “change in cell viability” value is “no further changes”. For the same compound, the toxicity enhanced in the data set on HEK-293 cells came to 80%. The “more cell death after exposing herbicide to 40 °C for 2 h” value in the data set on HEK-293 cells is “about 45%”. Besides, the increased toxicity with HEK-293 cells (herbicide exposed to UV 254 nm 2 h at 4 °C) came out at 40%; in the data set on HEK-293 cells (herbicide exposed to UV 365 nm 2 h at 4 °C) it was 24%. Further, in data set [2], the half-life is reported as 19.8 days.

Turning to `CCNc1nc(Cl)nc(NC(C)C)n1` [Atrazine, atrazine], the half-life result in data set [3] (aerobic condition) is reported as “about 150 days”; in data set [3] (anaerobic condition), “more than 2 years”; in data set [3] (in soil) it was “up to 6 months”.

As to `CCc1cccc(C)c1N(C(=O)CCl)C(C)COC` (stereo not shown) [Metolachlor, metolachlor], in the data set on HEK-293 cells, the “change in cell viability” value is on record as “no further changes”. Further, the “differences in cell viability responses between 4 °C, 23 °C and 40 °C groups” value in the data set on HEK-293 cells (UV 254 nm and UV 365 nm for 2 h) is on record as “no differences”. For the same compound, the “temperature effect on herbicide-triggered cytotoxicity” value in the data set with HEK-293 cells (herbicide at LD50 kept 2 h at 4, 23 or 40 °C, no UV, 4 °C group as control) was “no further effect”. For the same compound, in the data set with HEK-293 cells (no UV, UV 254 nm and UV 365 nm groups, 2 h at 4 °C), the “UV effect on cytotoxicity” value was “no further change”. The half-life in data set [2] is reported as 33.8 days. Moreover, the hepatotoxicity result in the data set on isolated rat hepatocytes was “not”.

As for `CC(C)Nc1nc(Cl)nc(NC(C)C)n1` [Propazine, propazine], the “LD50 (NIH TOXNET)” value in data set [4] is over 5000 mg/kg.

Turning to `CCNc1nc(Cl)nc(NCC)n1` [Simazine, simazine], in data set [4], the “LD50 (NIH TOXNET)” value is over 5000 mg/kg.
